Measured values from patent publication US9204653B2, “5-fluoro pyrimidine derivatives” (DOW AGROSCIENCES LLC, priority 2008, dated 2015).
Several values for one entry are separate records, joined by “and”; a condition that tells them apart may be missing. Identical values can stand only once. Like-named read-outs stand apart in the source and are kept apart here.

How the values were obtained:
[1] = test system: Mycosphaerella graminicola; Anamorph: Septoria tritici; Bayer Code SEPTTR; experiment: Leaf blotch of wheat, foliar fungicide treatment, one day protectant (1DP) or three day curative (3DC); format: in vivo, Septoria tritici on wheat plants (variety Yuma); settings: Zymoseptoria tritici, percent disease control rating
[2] = test system: Cercospora beticola; Bayer Code CERCBE; experiment: Leaf spot of sugar beets; format: in vivo, Cercospora beticola on sugar beets (variety HH-88); settings: 24 h, % disease control rating, one day protectant; for pest or weed control at 25 ppm: read-out: CERCBE 1 DP 25 ppm; for pest or weed control at 75 ppm: read-out: CERCBE 1 DP 75 ppm
[3] = test system: Venturia inaequalis; Bayer Code VENTIN; experiment: Apple scab; format: in vivo; settings: 24 h, % disease control rating, one day protectant; for pest or weed control at 25 ppm: read-out: VENTIN 1 DP 25 ppm; for pest or weed control at 75 ppm: read-out: VENTIN 1 DP 75 ppm
[4] = test system: Mycosphaerella fijiensis; BAYER Code MYCOFI; experiment: Black Sigatoka disease of banana; format: in vivo, Mycosphaerella fijiensis on field grown banana plants; settings: % disease control rating, banana leaves, natural inoculum
Procedure: 5. Evaluation of Fungicidal Activity: Black Sigatoka Disease of Banana (Mycosphaerella fijiensis; BAYER Code MYCOFI): […] The leaves were subsequently allowed to become infected by natural inoculum, and were visually assessed for percent disease control ˜40-45 days later. The following tables present the activity of typical compounds of the present disclosure when evaluated in these experiments. The effectiveness of the test compounds in controlling disease was determined by assessing the severity of disease on treated plants, then converting the severity to percent control based on the level of disease on untreated, inoculated plants. In each case of Tables I-V the rating scale is as follows: […]

[5] = test system: Mycosphaerella graminicola; Anamorph: Septoria tritici; Bayer Code SEPTTR; experiment: Fungicidal activity as a seed treatment: leaf blotch of wheat; format: in vivo, Septoria tritici on wheat variety Yuma; settings: for % Control (SEPTTR, seed treatment): 10% SC formulation; for Pot 1 to Pot 8 values (SEPTTR disease severity on treated plants): single pots, 8 replicates
From the text: 6. Evaluation of Fungicidal Activity as a Seed Treatment: Leaf Blotch of Wheat (Mycosphaerella graminicola; Anamorph: Septoria tritici; Bayer Code […]) […] Seeds (10 seeds/pot) were planted in 1 inch pot containing 50% mineral soil/50% soil-less Metro mix. 8-day old seedlings were inoculated with an aqueous spore suspension of Septoria tritici, and 8 pots of plants were inoculated for each fungicide rate. After inoculation, plants were kept in 100% relative humidity (one day in a dark dew chamber followed by two days in a lighted mist room) to allow establishment of infection. The plants were then transferred to a greenhouse for disease to develop. When infection levels on untreated plants reached 95 to 100%, disease severities on treated plants were assessed. […] The following tables present the activity of typical compounds of the present disclosure when evaluated in these experiments. The effectiveness of the test compounds in controlling disease was determined by assessing the severity of disease on treated plants, then converting the severity to percent control based on the level of disease on untreated, inoculated plants. In each case of Tables I-V the rating scale is as follows: […]

[6] = 24 h, one day protectant (1DP), read-out: SETTTR 1DP 25 ppm
[7] = 24 h, one day protectant (1DP), read-out: SEPTTR 1DP 100 ppm
[8] = 72 h, three day curative (3DC), read-out: SEPTTR 3DC 25 ppm
[9] = 72 h, three day curative (3DC), read-out: SEPTTR 3DC 100 ppm

SMILES	pest or weed control at 25 ppm [1, 6] [%]	pest or weed control at 100 ppm [1, 7] [%]	pest or weed control at 25 ppm [1, 8] [%]	pest or weed control at 100 ppm [1, 9] [%]	pest or weed control at 25 ppm [2] [%]	pest or weed control at 75 ppm [2] [%]	pest or weed control at 25 ppm [3] [%]	pest or weed control at 75 ppm [3] [%]	other results
Nc1nc(OCc2ccc(F)cc2)ncc1F [Compound 1, 5-Fluoro-2-(4-fluorobenzyloxy)pyrimidin-4-amine]	76 to 100	76 to 100	76 to 100	76 to 100	26 to 50	26 to 50	76 to 100	76 to 100	MYCOFI 1 DP 50 ppm ([4]; 50 ppm): C (26-50); MYCOFI 1 DP 200 ppm ([4]; 200 ppm): B (51-75)
Cc1ccc(COc2ncc(F)c(N)n2)cc1 [Compound 15]	76 to 100	76 to 100	76 to 100	76 to 100			76 to 100	76 to 100	control of SEPTTR via seed treatment (in words) ([5]; lowest test rate of 1.48 g ai/100 kg seeds): nearly complete control; % Control (SEPTTR, seed treatment) ([5]; rate 1.48 g/100 kg seeds): A (76-100); Pot 1 to Pot 8 values (SEPTTR disease severity on treated plants) ([5]; rate 1.48 g/100 kg seeds): 3% (3×) and 1% (2×) and 0% (3×); % Control (SEPTTR, seed treatment) ([5]; rate 4.44 g/100 kg seeds): A (76-100); Pot 1 to Pot 8 values (SEPTTR disease severity on treated plants) ([5]; rate 4.44 g/100 kg seeds): 0% (5×) and 1% (3×); % Control (SEPTTR, seed treatment) ([5]; rate 13.3 g/100 kg seeds): A (76-100); Pot 1 to Pot 8 values (SEPTTR disease severity on treated plants) ([5]; rate 13.3 g/100 kg seeds): 0% (4×) and 1% (4×); % Control (SEPTTR, seed treatment) ([5]; rate 40 g/100 kg seeds): A (76-100); Pot 1 to Pot 8 values (SEPTTR disease severity on treated plants) ([5]; rate 40 g/100 kg seeds): 0% (5×) and 1% (3×); % Control (SEPTTR, seed treatment) ([5]; rate 120 g/100 kg seeds): A (76-100); Pot 1 to Pot 8 values (SEPTTR disease severity on treated plants) ([5]; rate 120 g/100 kg seeds): 0%
CCC(Nc1nc(OCc2ccc(F)cc2)ncc1F)OC (stereo not shown) [Compound 14, [5-Fluoro-2-(4-fluorobenzyloxy)pyrimidin-4-yl](1-methoxypropyl)amine]	76 to 100	76 to 100	76 to 100	76 to 100	0 to 25	0 to 25	76 to 100	76 to 100	
CNc1nc(OCc2ccc(OC)c(C(F)(F)F)c2)ncc1F [Compound 155]	51 to 75	76 to 100	76 to 100	76 to 100	0 to 25	0 to 25	26 to 50	0 to 25	
